The record followed here is ChEMBL document CHEMBL1201862, “PubChem BioAssay data set” (2004).

Some test systems named below: UO-31; NCI-H226; PC-3; NCI/ADR-RES; Malme-3M; RXF 393; UACC-257; SK-MEL-28; OVCAR-8; SW-620; COLO 205; HOP-92; SR; MDA-MB-231; EKVX; NCI-H23; DU-145; SK-OV-3; SK-MEL-2.
Assay in all cases: growth of human tumour cells (NCI), 48 h

Each structure is given as a SMILES string.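 96-well plates; 48 h exposure; 5 concentrations. Endpoints by linear interpolation between flanking doses. Not reached: highest tested concentration assigned. GI50 marks 50% less growth.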 Activity calls are given as the source filed them. Rule as the data show it: active = GI50 up to about 1.1 µM and inactive = higher.

For the compound `O=C(NCCc1ccccc1)c1c(O)nc2ccccc2c1O`, the GI50 with UO-31, in the test on NCI-H226, in the test with PC-3, in the test on NCI/ADR-RES, in the test on Malme-3M and in the test with RXF 393 was > 100 µM (inactive) throughout. Besides, the GI50 in the test with UACC-257, with SK-MEL-28, in the test with OVCAR-8, in the test on SW-620, in the test on COLO 205 and in the test with HOP-92 was > 100 µM (inactive) throughout. Besides, the GI50 with SR, in the test with MDA-MB-231, in the test with EKVX, with NCI-H23 and with DU-145 was > 100 µM (inactive) throughout.
As for `FC(F)(F)c1nc(-c2ccccc2Cl)[nH]c1C(F)(F)F`, the GI50 in the test with UO-31 is 0.675 µM (active); in the test on NCI-H226 it was 0.61 µM (active); with Malme-3M, 0.861 µM (active); with RXF 393 it was 0.798 µM (active); in the test on SK-OV-3, 0.841 µM (active); in the test with UACC-257 it was 0.646 µM (active). In addition, the GI50 was 1.21 µM (inactive) in the test with SK-MEL-28; 1.11 µM (active) with OVCAR-8; 1.15 µM (inactive) in the test with SW-620; 0.542 µM (active) with COLO 205; 0.408 µM (active) in the test with HOP-92; 0.501 µM (active) with SK-MEL-2. The GI50 in the test with SR was 0.456 µM (active); in the test with EKVX, 0.56 µM (active); in the test with NCI-H23, 0.687 µM (active).
For the compound `O=C1c2ccccc2C(=O)C1C(c1ccc([N+](=O)[O-])cc1)C1C(=O)c2ccccc2C1=O`, the GI50 is 44.7 µM (inactive) in the test with UO-31; 59.7 µM (inactive) with NCI-H226; > 100 µM (inactive) in the test on Malme-3M; 14.3 µM (inactive) in the test with RXF 393; > 100 µM (inactive) in the test with SK-OV-3; 33.7 µM (inactive) in the test on UACC-257. The GI50 in the test with SK-MEL-28 was 29 µM (inactive); in the test with OVCAR-8, 25.5 µM (inactive); in the test on SW-620 it was 17.9 µM (inactive); with COLO 205, > 100 µM (inactive); in the test with HOP-92, 36.2 µM (inactive); in the test on SK-MEL-2, 91 µM (inactive). Besides, the GI50 in the test with SR was 28.2 µM (inactive); in the test on EKVX it was > 100 µM (inactive); with NCI-H23, 34.9 µM (inactive).
On to `O=C(CCc1nnc(S)[nH]1)Nc1ccccc1Cl`, for which the GI50 in the test with UO-31, with NCI-H226, in the test on Malme-3M, in the test with RXF 393, in the test with SK-OV-3 and in the test with UACC-257 was > 100 µM (inactive) throughout. Besides, the GI50 is > 100 µM (inactive) with SK-MEL-28; > 100 µM (inactive) with OVCAR-8; 18.2 µM (inactive) in the test on SW-620; > 100 µM (inactive) in the test on COLO 205; > 100 µM (inactive) in the test with HOP-92; > 100 µM (inactive) in the test on SK-MEL-2. For the same compound, the GI50 with SR, in the test on EKVX and in the test on NCI-H23 was > 100 µM (inactive) throughout.
`COC(=O)c1nc(N)nc(O)c1-c1ccc(Cl)cc1`: the GI50 in the test on UO-31, with NCI-H226, in the test with Malme-3M, with RXF 393, with SK-OV-3 and in the test on UACC-257 was > 100 µM (inactive) throughout. Also, the GI50 in the test on SK-MEL-28, in the test with OVCAR-8, in the test with SW-620, with COLO 205, in the test on HOP-92 and with SK-MEL-2 was > 100 µM (inactive) each time. Further, the values for the GI50 with SR, in the test with EKVX and in the test with NCI-H23 were > 70 µM (inactive), > 100 µM (inactive) and > 100 µM (inactive), respectively.
With `O=c1[nH]cc(COCCCO)c(=O)[nH]1`, the GI50 in the test on UO-31, with NCI-H226, with Malme-3M, with RXF 393, in the test on SK-OV-3 and in the test on UACC-257 was > 100 µM (inactive) each time. Besides, the GI50 in the test with SK-MEL-28, in the test with OVCAR-8, in the test with SW-620, in the test on COLO 205, with HOP-92 and in the test with SK-MEL-2 was > 100 µM (inactive) in each case. Moreover, the GI50 was > 100 µM (inactive) in the test with SR, > 100 µM (inactive) with EKVX and 53.5 µM (inactive) in the test with NCI-H23.
Regarding `CN(CC(=O)O)c1ncc2c(n1)-c1ccccc1CC2`, the GI50 in the test on UO-31, with NCI-H226, in the test with PC-3, in the test on NCI/ADR-RES, in the test on Malme-3M and in the test with RXF 393 was > 100 µM (inactive) each time. Moreover, the GI50 in the test on SK-OV-3, with UACC-257, with SK-MEL-28, in the test on OVCAR-8, with SW-620 and in the test with COLO 205 was > 100 µM (inactive) in each case. Further, the GI50 in the test with HOP-92, with SK-MEL-2, with SR, in the test on MDA-MB-231, in the test with EKVX and with NCI-H23 was > 100 µM (inactive) in each case. Further, the GI50 in the test with DU-145 is > 100 µM (inactive).
As to `O=[N+]([O-])c1ccc(N2C[N+](c3ccccc3)=NC(c3ccccc3)=N2)cc1`, the GI50 in the test on UO-31 is 17.3 µM (inactive); with NCI-H226, > 100 µM (inactive); in the test on Malme-3M, 91.2 µM (inactive); in the test with RXF 393, 54.5 µM (inactive); with SK-OV-3 it was 48.9 µM (inactive); in the test on UACC-257, 38.5 µM (inactive). In addition, the GI50 with SK-MEL-28 is > 100 µM (inactive); with OVCAR-8, 43.9 µM (inactive); with SW-620, 68.4 µM (inactive); in the test with COLO 205, 50.5 µM (inactive); in the test on HOP-92 it was 35.7 µM (inactive); in the test on SK-MEL-2 it was 20.5 µM (inactive). Besides, the GI50 in the test on SR is 37.8 µM (inactive); in the test on NCI-H23, 34 µM (inactive).
For `O=C(O)CCCCCOc1cccnc1/C=N/NC1=NCCN1`, the GI50 in the test on UO-31, in the test on NCI-H226, in the test on Malme-3M, in the test on RXF 393, in the test on SK-OV-3 and in the test with UACC-257 was > 100 µM (inactive) throughout. The GI50 in the test with SK-MEL-28, with OVCAR-8, with SW-620, in the test with COLO 205, in the test on HOP-92 and in the test on SK-MEL-2 was > 100 µM (inactive) each time. Further, the GI50 with SR, in the test with EKVX and in the test on NCI-H23 was > 100 µM (inactive) throughout.
Take `CCN(CC)CCn1c(=O)c2c(C)c3oc4ccccc4oc3c(C)c2c1=O`: the GI50 with NCI-H226, in the test on PC-3, in the test on NCI/ADR-RES, in the test on Malme-3M, in the test with RXF 393 and in the test with SK-OV-3 was > 100 µM (inactive) each time. For the same compound, the GI50 in the test with UACC-257, with OVCAR-8, in the test with SW-620, with COLO 205, in the test on HOP-92 and in the test on SK-MEL-2 was > 100 µM (inactive) each time. For the same compound, the GI50 with MDA-MB-231 and in the test with EKVX was > 100 µM (inactive) in each case.
As to `CN1C(=O)c2c(c3c4ccccc4n(C4OC(CO)C(O)C(O)C4O)c3c3[nH]c4ccccc4c23)C1=O` (configuration not stated), the GI50 in the test with UO-31 was 2.57 µM (inactive); with NCI-H226, 1.77 µM (inactive); in the test on PC-3, 1.92 µM (inactive); in the test with NCI/ADR-RES it was 12.5 µM (inactive); with Malme-3M, 0.194 µM (active); with RXF 393, 3.55 µM (inactive). Also, the GI50 was 2.92 µM (inactive) in the test with SK-OV-3; 2.49 µM (inactive) in the test with UACC-257; 2.14 µM (inactive) in the test on SK-MEL-28; 1.42 µM (inactive) in the test with OVCAR-8; 1.71 µM (inactive) with SW-620; 0.944 µM (active) in the test with COLO 205. Besides, the GI50 is 1.08 µM (active) with HOP-92; 2.48 µM (inactive) with SK-MEL-2; 0.164 µM (active) in the test on SR; 1.51 µM (inactive) in the test on MDA-MB-231; 3.02 µM (inactive) in the test with EKVX; 2.59 µM (inactive) with NCI-H23. For the same compound, the GI50 with DU-145 is 2.74 µM (inactive).
With `CSCCCNC(=O)c1csc(-c2csc(CCNC(=O)CNC(=O)CNC(=O)OC(C)(C)C)n2)n1`, the GI50 in the test with UO-31, with NCI-H226, with PC-3, in the test on NCI/ADR-RES, in the test on Malme-3M and in the test with RXF 393 was > 100 µM (inactive) throughout. In addition, the GI50 with SK-OV-3, with UACC-257, with SK-MEL-28, in the test with OVCAR-8, in the test with SW-620 and in the test with COLO 205 was > 100 µM (inactive) throughout. In addition, the GI50 in the test with HOP-92, in the test on SK-MEL-2, with SR, in the test with MDA-MB-231, in the test with EKVX and in the test on NCI-H23 was > 100 µM (inactive) each time. The GI50 in the test on DU-145 was > 100 µM (inactive).
